Results: patent publication US20050239656A1, “Pyridine compounds or salts thereof and herbicides containing the same” (priority 2002, published 2005)

How the values were obtained:
[1] = test system: barnyardgrass; assay: Test Example 1: foliage treatment, upland pot test; assay type: in vivo, Echinochloa crus-galli L.; conditions: observed 18th to 23rd day, 0 = non-treated, 100 = complete kill
From the text: (§1) Upland field soil was put into a 1/170,000 ha pot, and seed of various plants were sown. Then, when the plants reached predetermined leaf stages ((1) barnyardgrass: 1.3 to 2.8 leaf stages, (2) crabgrass: 1.0 to 2.8 leaf stages, (3) green foxtail: 1.3 to 2.6 leaf stages, (4) redroot pigweed: 0.1 to 1.2 leaf stages, (5) prickly sida: 0.1 to 1.2 leaf stages, (6) velvetleaf: 0.1 to 1.2 leaf stages, (7) tall morningglory: 0.1 to 1.5 leaf stages, (8) rice: 1.2 to 2.6 leaf stages, (9) wheat: 1.3 to 2.4 leaf stages, (10) corn, 2.1 to 3.2 leaf stages, (11) soybean: 0.1 to 0.4 leaf stage), a wettable powder or emulsifiable concentrate having the compound of the present invention formulated in accordance with a usual formulation method, was weighed so that the active ingredient would be a predetermined amount, and diluted with water in an amount of 500 L/ha. To the diluted solution, 0.1% (v/v) of agricultural spreader was added. The herbicide thus adjusted was applied by a small size sprayer for foliage treatment. On the 18th to 23rd days after the application of the herbicide, the growth of the respective plants was visually observed, and the herbicidal effects were evaluated by the growth controlling degrees (%) ranging from 0 (equivalent to the non-treated plot) to 100 (complete kill), whereby the results shown in Table 3, were obtained.

[2] = test system: barnyardgrass; assay: Test Example 2: soil surface treatment, upland pot test; assay type: in vivo, Echinochloa crus-galli L.; conditions: active ingredient 500 g/ha, observed 20th to 28th day
In short: (§2)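 Visual growth-control ratings, from 0 (like the non-treated plot) to 100 (total kill), were made between days 20 and 28 after a soil-surface spray. The compound, formulated as wettable powder or emulsifiable concentrate and diluted at 1,500 L/ha, went on one day post-sowing in upland-soil pots of 1/170,000 ha.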

[3] = test system: corn; assay: Test Example 1: foliage treatment, upland pot test; assay type: in vivo, Zea mays L.; conditions: crop, observed 18th to 23rd day, 0 = non-treated, 100 = complete kill
From the text: as §1

[4] = test system: rice (var. Nihonbare); assay: Test Example 3: paddy pot test, transplanted rice; assay type: in vivo, Oryza sativa L.; conditions: active ingredient 250 g/ha, applied 4th day after transplantation, visually observed 21st day after application, 0 = non-treated, 100 = complete kill
In short: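 Rice (var. Nihonbare) at 2 leaf stage transplanted 3 cm deep into puddled paddy soil under 3–4 cm flooding; on day 4 after transplanting, diluted wettable powder or emulsifiable concentrate applied by pipette under submerged conditions at a set active-ingredient dose. Growth scored visually 21 days after application, 0 (untreated) to 100 (complete kill) %.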

[5] = test system: velvetleaf; assay: Test Example 2: soil surface treatment, upland pot test; assay type: in vivo, Abutilon theophrasti MEDIC.; conditions: active ingredient 500 g/ha, observed 20th to 28th day
In short: as §2

[6] = test system: redroot pigweed; assay: as above; assay type: in vivo, Amaranthus retroflexus L.; conditions: active ingredient 500 g/ha, observed 20th to 28th day
In short: as §2

[7] = test system: redroot pigweed; assay: Test Example 1: foliage treatment, upland pot test; assay type: in vivo, Amaranthus retroflexus L.; conditions: active ingredient 1000 g/ha, observed 18th to 23rd day, 0 = non-treated, 100 = complete kill
From the text: as §1

[8] = test system: soybean; assay: Test Example 1: foliage treatment, upland pot test; assay type: in vivo, Glycine max Merr.; conditions: crop, observed 18th to 23rd day, 0 = non-treated, 100 = complete kill
From the text: as §1

[9] = test system: prickly sida; assay: Test Example 1: foliage treatment, upland pot test; assay type: in vivo, Sida spinosa L.; conditions: observed 18th to 23rd day, 0 = non-treated, 100 = complete kill
From the text: as §1

[10] = test system: rice; assay: Test Example 2: soil surface treatment, upland pot test; assay type: in vivo, Oryza sativa L.; conditions: active ingredient 500 g/ha, observed 20th to 28th day
In short: as §2

[11] = test system: crabgrass; assay: as above; assay type: in vivo, Digitaria sanguinalis L.; conditions: active ingredient 500 g/ha, observed 20th to 28th day
In short: as §2

[12] = test system: green foxtail; assay: as above; assay type: in vivo, Setaria viridis L.; conditions: active ingredient 500 g/ha, observed 20th to 28th day
In short: as §2

[13] = test system: velvetleaf; assay: Test Example 1: foliage treatment, upland pot test; assay type: in vivo, Abutilon theophrasti MEDIC.; conditions: observed 18th to 23rd day, 0 = non-treated, 100 = complete kill
From the text: as §1

[14] = test system: barnyardgrass; assay: Test Example 3: paddy pot test, application under submerged conditions; assay type: in vivo, Echinochloa crus-galli L.; conditions: active ingredient 250 g/ha; submerged application at 0.5 leaf stage; visually observed 14 days after application; 0 = non-treated, 100 = complete kill
In short: (§3)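 Visual growth-control rating (0 = untreated, 100 = complete kill) 14 days after treatment. The formulated compound, as a diluted wettable powder or emulsifiable concentrate, went into 3–4 cm flood water at a predetermined active-ingredient dose once the weeds reached 0.5 leaf stage (wapato: primary leaf stage).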

[15] = test system: rice; assay: Test Example 1: foliage treatment, upland pot test; assay type: in vivo, Oryza sativa L.; conditions: crop, observed 18th to 23rd day, 0 = non-treated, 100 = complete kill
From the text: as §1

[16] = test system: prickly sida; assay: Test Example 2: soil surface treatment, upland pot test; assay type: in vivo, Sida spinosa L.; conditions: active ingredient 500 g/ha, observed 20th to 28th day
In short: as §2

[17] = test system: japanese bulrush; assay: Test Example 3: paddy pot test, application under submerged conditions; assay type: in vivo, Scirpus juncoides; conditions: active ingredient 250 g/ha; submerged application at 0.5 leaf stage; visually observed 14 days after application; 0 = non-treated, 100 = complete kill
In short: as §3

[18] = test system: soybean; assay: Test Example 2: soil surface treatment, upland pot test; assay type: in vivo, Glycine max Merr.; conditions: active ingredient 500 g/ha, observed 20th to 28th day
In short: as §2

[19] = test system: corn; assay: as above; assay type: in vivo, Zea mays L.; conditions: active ingredient 500 g/ha, observed 20th to 28th day
In short: as §2

[20] = test system: japanese ribbon wapato; assay: Test Example 3: paddy pot test, application under submerged conditions; assay type: in vivo, Sagittaria pygniaea; conditions: active ingredient 250 g/ha; submerged application at primary leaf stage; visually observed 14 days after application; 0 = non-treated, 100 = complete kill
In short: as §3

[21] = test system: green foxtail; assay: Test Example 1: foliage treatment, upland pot test; assay type: in vivo, Setaria viridis L.; conditions: active ingredient 500 g/ha, observed 18th to 23rd day, 0 = non-treated, 100 = complete kill
From the text: as §1

[22] = test system: crabgrass; assay: Test Example 1: foliage treatment, upland pot test; assay type: in vivo, Digitaria sanguinalis L.; conditions: active ingredient 500 g/ha, observed 18th to 23rd day, 0 = non-treated, 100 = complete kill
From the text: as §1

| Compound | Growth controlling degree (%) Barnyardgrass [2] [%] | Growth controlling degree (%) Rice [4] [%] | Growth controlling degree (%) Velvetleaf [5] [%] | Growth controlling degree (%) Redroot pigweed [6] [%] | Growth controlling degree (%) Rice [10] [%] | Growth controlling degree (%) Crabgrass [11] [%] | Growth controlling degree (%) Green foxtail [12] [%] | Growth controlling degree (%) Barnyardgrass [14] [%] | Growth controlling degree (%) Prickly sida [16] [%] | Growth controlling degree (%) Japanese bulrush [17] [%] | Growth controlling degree (%) Soyabean [18] [%] | Growth controlling degree (%) Corn [19] [%] | Growth controlling degree (%) Japanese ribbon wapato [20] [%] | Growth controlling degree (%) Barnyardgrass ([1]; active ingredient 500 g/ha) [%] | Growth controlling degree (%) Corn ([3]; active ingredient 500 g/ha) [%] | Growth controlling degree (%) Green foxtail [21] [%] | Growth controlling degree (%) Soybean ([8]; active ingredient 500 g/ha) [%] | Growth controlling degree (%) Prickly sida ([9]; active ingredient 500 g/ha) [%] | Growth controlling degree (%) Crabgrass [22] [%] | Growth controlling degree (%) Velvetleaf ([13]; active ingredient 500 g/ha) [%] | other results |
| --- | --- | --- | --- | --- | --- | --- | --- | --- | --- | --- | --- | --- | --- | --- | --- | --- | --- | --- | --- | --- | --- |
| CCN(C(=O)Cc1cccc(C(F)(F)F)c1F)C(c1cnccc1C(F)(F)F)C(C)C (centres unmarked) [I-76] | 70 | 10 | 50 | 70 | 10 | 98 | 100 | 100 | 100 | 100 | 0 | 0 | 60 |  |  |  |  |  |  |  | Growth controlling degree (%) Barnyardgrass ([1]; active ingredient 1000 g/ha): 80%; Growth controlling degree (%) Corn ([3]; active ingredient 1000 g/ha): 95%; Growth controlling degree (%) Redroot pigweed [7]: 80%; Growth controlling degree (%) Soybean ([8]; active ingredient 1000 g/ha): 70%; Growth controlling degree (%) Prickly sida ([9]; active ingredient 1000 g/ha): 70%; Growth controlling degree (%) Velvetleaf ([13]; active ingredient 1000 g/ha): 90%; Growth controlling degree (%) Rice ([15]; active ingredient 1000 g/ha): 40% |
| CC(C)C(c1cnccc1C(F)(F)F)N(C)C(=O)CC1CCCCC1 (centres unmarked) [I-164] | 70 | 10 | 40 | 70 | 60 | 98 | 85 | 100 | 60 | 98 | 20 | 20 | 0 | 60 | 50 | 60 | 30 | 80 | 60 | 85 | Growth controlling degree (%) Rice ([15]; active ingredient 500 g/ha): 50% |
| CC(C)C(c1cnccc1C(F)(F)F)N(C)C(=O)COc1ccc(F)cc1 (centres unmarked) [I-241] | 100 | 0 | 70 | 90 | 20 | 98 | 100 | 100 | 100 | 95 | 20 | 40 | 80 | 70 | 30 | 70 | 80 | 80 | 95 | 80 | Growth controlling degree (%) Rice ([15]; active ingredient 500 g/ha): 20% |
